# Data published in patent US12606561B2, “Substituted pyrazolo[1,5-a][1,3,5]triazines as CDK inhibitors” (QURIENT CO., LTD., priority 2018, dated 2026).
# Assays:
# CDK2/Cyclin A = biological target: T1, CDK2/Cyclin A (Homo sapiens, UniProt P24941); test: Enzymatic assay for CDK2 (LANCE Ultra kinase assay, FRET based); format: biochemical; conditions: ATP at Km
# T1 construct: purchased Invitrogen PV6290
# How it was run: (§1)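 Compounds tested as 8 doses in 4-fold steps against CDK2/Cyclin A ([…]) or CDK5/p25 ([…]), with ATP at its Km and 68 nM ULight-MBP substrate. After 60 min at 23° C., EDTA plus Eu-labelled anti-phospho-MBP added; TR-FRET (615/665 nm) read after another 60 min.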
# OVCAR-3 = OVCAR-3 viability assay (CellTiter-Glo, 72 hours); format: cell-based; conditions: Homo sapiens; OVCAR-3 cells
# How it was run: (§2)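 After a 24 h attachment period, cells received a 0.0015–10 uM compound titration and were incubated 72 h at 37° C, 5% CO2. Viability came from CellTiter-Glo luminescence measured in duplicate.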
# CDK7/Cyclin H/MNAT1 = biological target: T2, CDK7/Cyclin H/MNAT1 (Homo sapiens, UniProt P50613); test: Enzymatic assay for CDK7 (LANCE Ultra kinase assay, FRET based); format: biochemical; conditions: for IC50: ATP at Km
# T2 construct: purchased Invitrogen PR6749B
# How it was run: (§3)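 With ATP set at its Km, compounds were tested against purified CDK/cyclin complexes phosphorylating a ULight-labeled peptide. Signal came from FRET between the peptide and a Europium-labeled anti-phospho-antibody.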
# MV4-11 = test: Cellular MV4-11 viability assay (CellTiter-Glo, 72 hours); format: cell-based; conditions: Homo sapiens; MV4-11 cells
# Procedure: Human […] cell line, MV4-11_(ATCC, Cat #CRL-9591), NSCLC (Non-small cell lung cancer) cell line H460 (ATCC, Cat #HTB-177), A2780 (ECACC, Cat #93112519) and OVCAR-3(ATCC, Cat #HTB-161) were obtained from ATCC. Cells were grown in RPMI-1640 media (Invitrogen, Cat #22400-089) supplemented with 10% FBS (Invitrogen, Cat #10099141) and 1% penicillin/streptomycin (Invitrogen, Cat #15070063) and cultured at 37° C., 5% CO2 in a humidified chamber. All cell lines were routinely tested for mycoplasma.
# To effect of the CDK7 inhibitor to inhibit the growth of target cancer cells, viability assay were conducted a 72 hour time period. Briefly, the candidate cell line was plated in 96 well plate at the following density of cells respectively. 1×10^4 cells/well for MV4-11, 5×10^3 for H460 and OVCAR-3, and 1×10^3 for A2780. After 24 hours, the cells were treated with various concentrations of the compound (ranging from 0.0015 uM to 10 uM). DMSO solvent without compound served as a control and final DMSO concentration lest than 0.1%. After 72 hours of incubation at 37° C., 5% CO2 incubator, cells were analyzed for the viability using the CellTiter-Glo Luminescent Cell Viability Assay (Promega, Cat #G7570). All viability assays were performed in duplicate and Luminescence was read using an Envision (Perkin Elmer, USA). Data was analyzed using XLfit software.
# CDK1/Cyclin B = biological target: T3, CDK1/Cyclin B (Homo sapiens, UniProt P06493); test: Enzymatic assay for CDK1 (LANCE Ultra kinase assay, FRET based); format: biochemical; conditions: ATP at Km; read-out: CDK1 enzymatic activity IC50
# T3 construct: purchased Invitrogen PR4768C
# How it was run: as §3
# CDK5/p25 = biological target: T4, CDK5/p25 (Homo sapiens, UniProt Q00535); test: Enzymatic assay for CDK5 (LANCE Ultra kinase assay, FRET based); format: biochemical; conditions: ATP at Km
# T4 construct: purchased Invitrogen PR8543B
# How it was run: as §1
# A2780 = A2780 viability assay (CellTiter-Glo, 72 hours); format: cell-based; conditions: Homo sapiens; A2780 cells
# How it was run: as §2
# T3 sequence (P06493 whole entry): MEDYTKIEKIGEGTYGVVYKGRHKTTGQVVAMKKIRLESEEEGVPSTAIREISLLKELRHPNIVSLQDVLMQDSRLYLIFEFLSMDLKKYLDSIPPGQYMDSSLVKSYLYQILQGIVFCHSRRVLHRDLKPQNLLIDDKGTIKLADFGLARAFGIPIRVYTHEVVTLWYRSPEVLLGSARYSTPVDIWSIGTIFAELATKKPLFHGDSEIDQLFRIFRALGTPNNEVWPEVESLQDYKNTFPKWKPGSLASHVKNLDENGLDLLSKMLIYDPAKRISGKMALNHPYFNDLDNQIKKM
# T3 sequence (P14635 whole entry partner): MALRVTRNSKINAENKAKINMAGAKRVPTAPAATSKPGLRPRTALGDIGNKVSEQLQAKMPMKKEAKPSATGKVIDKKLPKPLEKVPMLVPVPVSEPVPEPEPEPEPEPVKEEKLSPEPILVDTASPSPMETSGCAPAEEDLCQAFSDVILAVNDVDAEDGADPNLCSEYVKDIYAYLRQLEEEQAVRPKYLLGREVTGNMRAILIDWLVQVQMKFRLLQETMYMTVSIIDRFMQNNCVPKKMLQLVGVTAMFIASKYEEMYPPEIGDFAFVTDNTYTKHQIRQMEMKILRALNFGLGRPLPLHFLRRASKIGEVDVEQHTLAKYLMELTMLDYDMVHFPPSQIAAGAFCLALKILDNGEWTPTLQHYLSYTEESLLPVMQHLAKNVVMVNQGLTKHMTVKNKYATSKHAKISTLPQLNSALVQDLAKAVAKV
# T4 sequence (Q00535 whole entry): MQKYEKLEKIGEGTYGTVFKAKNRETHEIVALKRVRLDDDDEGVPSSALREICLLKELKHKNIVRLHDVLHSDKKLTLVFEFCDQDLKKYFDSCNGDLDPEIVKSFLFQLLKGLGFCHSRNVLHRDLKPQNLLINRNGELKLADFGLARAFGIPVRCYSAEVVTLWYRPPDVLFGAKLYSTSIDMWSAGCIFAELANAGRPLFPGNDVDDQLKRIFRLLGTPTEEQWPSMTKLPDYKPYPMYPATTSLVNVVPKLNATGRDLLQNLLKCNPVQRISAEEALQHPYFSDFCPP
# T4 sequence (Q15078 99-307 partner limits assumed): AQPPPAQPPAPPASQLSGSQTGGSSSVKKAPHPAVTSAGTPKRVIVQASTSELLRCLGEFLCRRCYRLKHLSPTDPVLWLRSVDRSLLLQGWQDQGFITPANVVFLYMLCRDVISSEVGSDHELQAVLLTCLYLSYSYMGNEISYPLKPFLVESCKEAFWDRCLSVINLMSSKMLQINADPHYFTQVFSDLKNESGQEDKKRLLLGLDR
# T2 sequence (P50613 whole entry): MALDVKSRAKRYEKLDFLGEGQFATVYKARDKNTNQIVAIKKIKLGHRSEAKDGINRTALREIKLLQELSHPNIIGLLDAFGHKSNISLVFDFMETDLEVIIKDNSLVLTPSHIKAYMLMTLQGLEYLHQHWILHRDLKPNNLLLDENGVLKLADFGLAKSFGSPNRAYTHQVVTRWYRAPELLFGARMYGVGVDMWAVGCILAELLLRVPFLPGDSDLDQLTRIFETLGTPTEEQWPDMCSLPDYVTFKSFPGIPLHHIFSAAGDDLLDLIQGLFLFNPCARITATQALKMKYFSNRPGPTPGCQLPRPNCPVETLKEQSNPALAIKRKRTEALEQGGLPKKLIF
# T2 sequence (P51946 whole entry partner): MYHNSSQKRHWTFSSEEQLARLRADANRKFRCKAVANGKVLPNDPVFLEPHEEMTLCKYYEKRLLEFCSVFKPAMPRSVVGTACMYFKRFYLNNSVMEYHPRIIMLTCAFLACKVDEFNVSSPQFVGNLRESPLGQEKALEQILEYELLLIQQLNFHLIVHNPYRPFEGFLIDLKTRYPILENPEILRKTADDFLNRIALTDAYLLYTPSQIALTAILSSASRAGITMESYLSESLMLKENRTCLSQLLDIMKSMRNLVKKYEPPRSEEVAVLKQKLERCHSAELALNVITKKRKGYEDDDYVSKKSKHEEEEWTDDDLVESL
# T2 sequence (P51948 whole entry partner): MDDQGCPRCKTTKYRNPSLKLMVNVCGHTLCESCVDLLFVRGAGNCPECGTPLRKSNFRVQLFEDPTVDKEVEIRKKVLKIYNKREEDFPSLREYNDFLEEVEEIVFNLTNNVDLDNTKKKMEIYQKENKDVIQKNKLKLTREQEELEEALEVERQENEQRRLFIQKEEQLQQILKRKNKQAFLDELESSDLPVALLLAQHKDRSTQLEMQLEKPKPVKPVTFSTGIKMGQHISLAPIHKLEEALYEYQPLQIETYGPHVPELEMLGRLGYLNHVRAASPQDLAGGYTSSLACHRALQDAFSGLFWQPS
SMILES,IC50 (CDK2/Cyclin A) [µM],IC50 (OVCAR-3) [µM],IC50 (CDK7/Cyclin H/MNAT1) [µM],CDK1/CDK7: Selectivity of CDK7 inhibition over CDK1 inhibition (CDK7/Cyclin H/MNAT1),CDK2/CDK7: Selectivity of CDK7 inhibition over CDK2 inhibition (CDK7/Cyclin H/MNAT1),CDK5/CDK7: Selectivity of CDK7 inhibition over CDK5 inhibition (CDK7/Cyclin H/MNAT1),IC50 (MV4-11) [µM],IC50 (CDK1/Cyclin B) [µM],IC50 (CDK5/p25) [µM],IC50 (A2780) [µM]
CC(C)c1cnn2c(NCc3ccccc3-c3nccc4cc(NC(=O)/C=C/CN(C)C)ccc34)nc(NCCC3CNCCO3)nc12 (racemic) [Compound 51],> 1,< 1,< 0.1,A (A indicates [fold] > 500),A (A indicates [fold] > 500),A (A indicates [fold] > 500),< 1,> 1,> 1,< 1
C/C=C/C(=O)Nc1ccc2c(-c3ccccc3CNc3nc(N4CCNCC4)nc4c(C(C)C)cnn34)nccc2c1 [Compound 71],> 1,< 1,< 0.1,B (B indicates 50 < [fold] ≤ 500),B (B indicates 50 < [fold] ≤ 500),B (B indicates 50 < [fold] ≤ 500),< 1,> 1,> 1,< 1
C/C=C/C(=O)Nc1cccc2cc(-c3cccc(C)c3CNc3nc(NC[C@H]4CCNC[C@@H]4O)nc4c(C(C)C)cnn34)[nH]c12 [Compound 73],> 1,1 to 10,< 0.1,A (A indicates [fold] > 500),A (A indicates [fold] > 500),B (B indicates 50 < [fold] ≤ 500),< 1,> 1,> 1,1 to 10
C/C=C/C(=O)Nc1ccc2c(-c3ccccc3CNc3cc(NC[C@H]4CCNC[C@@H]4O)nc4c(C(C)C)cnn34)nccc2c1 [Compound 72],> 1,< 1,< 0.1,A (A indicates [fold] > 500),A (A indicates [fold] > 500),A (A indicates [fold] > 500),< 1,> 1,> 1,< 1
C/C=C/C(=O)Nc1ccc2c(ccn2-c2ccccc2CNc2nc(NC[C@H]3CCNC[C@@H]3O)nc3c(C(C)C)cnn23)c1 [Compound 74],> 1,< 1,< 0.1,B (B indicates 50 < [fold] ≤ 500),B (B indicates 50 < [fold] ≤ 500),B (B indicates 50 < [fold] ≤ 500),< 1,> 1,0.1 to 1,< 1
CC(C)c1cnn2c(NCc3ccccc3-c3nccc4cc(NC(=O)/C=C/CN(C)C)ccc34)nc(N3CCC(N(C)C)CC3)nc12 [Compound 39],> 1,< 1,< 0.1,A (A indicates [fold] > 500),A (A indicates [fold] > 500),B (B indicates 50 < [fold] ≤ 500),< 1,> 1,> 1,< 1
CC(C)c1cnn2c(NCc3ccccc3-c3nccc4cc(NC(=O)/C=C/CN5CCCC5)ccc34)nc(N3CCC(N)CC3)nc12 [Compound 57],> 1,< 1,< 0.1,A (A indicates [fold] > 500),A (A indicates [fold] > 500),A (A indicates [fold] > 500),< 1,> 1,> 1,< 1
CC(C)c1cnn2c(NCc3ccccc3-c3nccc4cc(NC(=O)/C=C/CN(C)C)ccc34)nc(NCC3CCNCC3)nc12 [Compound 45],> 1,< 1,< 0.1,A (A indicates [fold] > 500),A (A indicates [fold] > 500),A (A indicates [fold] > 500),< 1,> 1,> 1,< 1
COC/C=C/C(=O)Nc1ccc2c(-c3ccccc3CNc3nc(N4CCC(N)CC4)nc4c(C(C)C)cnn34)nccc2c1 [Compound 54],> 1,< 1,< 0.1,A (A indicates [fold] > 500),A (A indicates [fold] > 500),A (A indicates [fold] > 500),< 1,> 1,> 1,< 1
CC(C)c1cnn2c(NCc3ccccc3-c3nccc4cc(NC(=O)/C=C/CN5CCCCC5)ccc34)nc(N3CCC(N)CC3)nc12 [Compound 52],> 1,< 1,< 0.1,A (A indicates [fold] > 500),A (A indicates [fold] > 500),A (A indicates [fold] > 500),< 1,> 1,> 1,< 1
C=C(F)C(=O)Nc1ccc2c(-c3ccccc3CNc3nc(NC[C@H]4CCNC[C@@H]4O)nc4c(C(C)C)cnn34)nccc2c1 [Compound 64],> 1,< 1,< 0.1,A (A indicates [fold] > 500),A (A indicates [fold] > 500),A (A indicates [fold] > 500),< 1,> 1,> 1,< 1
CC#CC(=O)Nc1ccc2c(-c3ccccc3CNc3nc(N4CCC(N)CC4)nc4c(C(C)C)cnn34)nccc2c1 [Compound 47],> 1,< 1,< 0.1,A (A indicates [fold] > 500),A (A indicates [fold] > 500),B (B indicates 50 < [fold] ≤ 500),< 1,> 1,> 1,< 1
CC(C)c1cnn2c(NCc3ccccc3-c3nccc4cc(NC(=O)/C=C/CN(C)C)ccc34)nc(NC3CCC(O)CC3)nc12 (centres unmarked) [Compound 36],> 1,< 1,< 0.1,A (A indicates [fold] > 500),A (A indicates [fold] > 500),A (A indicates [fold] > 500),< 1,> 1,> 1,< 1
CC(C)c1cnn2c(NCc3ccccc3-c3ccnc4cc(NC(=O)/C=C/CN(C)C)ccc34)nc(N3CCC(N)CC3)nc12 [Compound 55],> 1,< 1,< 0.1,A (A indicates [fold] > 500),A (A indicates [fold] > 500),B (B indicates 50 < [fold] ≤ 500),< 1,> 1,> 1,< 1
